Publication PMC3927474, “Whole body synthesis rates of DHA from α-linolenic acid are greater than brain DHA accretion and uptake rates in adult rats” (Journal of Lipid Research, 2014)

Experiment: Balance study: n-3 and n-6 PUFA balance (intake, excretion, accretion, metabolic consumption)
Format: in vivo, rat
Conditions: 24 h feces at 8 weeks postweaning, percentage of intake
Experimental: All procedures were performed in accordance with the policies set out by the Canadian Council on Animal Care and were approved by the Animal Ethics Committee at the University of Toronto. Three Long Evans dams each with 18-day-old male Long Evans pups were ordered from Charles River Laboratories (St. Constant, QC, Canada). Pups were nonlittermates and each dam was housed with pups. Upon arrival, dams were allocated to one of the three diets (described below). When the pups were 21 days old, two pups from each dam were euthanized by high-energy head-focused microwave fixation (4.5 kW for 0.9 s). Brains were removed immediately and stored at -80°C until lipid analysis. Bodies were also stored at -80°C immediately after euthanization until analysis. The brains and bodies of these pups were used to determine the PUFA content of the rats at weaning (i.e., baseline PUFA content). […] For the balance study, the rats were weighed, food intake was determined, and uneaten food was replaced with fresh food on a weekly basis. Rats were euthanized by CO2 asphyxiation. Brains were removed and dissected sagittally. Carcasses and one half brain per rat were stored immediately at -80°C (to be later analyzed for lipid content). […] For the steady-state infusion study and the brain DHA uptake study, a jugular vein catheter was surgically implanted into the rats. […] Carcasses were thawed overnight in a refrigerator at 3°C, cut into pieces, and passed through a #12 hand grinder. After the whole body had passed through the grinder once, the homogenate was mixed together by hand and passed at least one more time through the grinder until the mixture was sufficiently homogeneous. Due to the small size of the pups all of the 21-day-old pup bodies were passed through the grinder together. […] New chloroform was added to the remaining aqueous phase, the mixture was once again centrifuged, and the chloroform layer was extracted and added to the previously extracted chloroform layer. […] One hemisphere was thawed briefly and dissected over ice to separate the brainstem, cerebellum, cortex, hippocampus, striatum, and the rest of the brain. […] The homogenizer was then washed with methanol, which was then transferred to the test tube containing the homogenized brain and KCl. […] The chloroform layer was extracted and new chloroform was added to the aqueous phase. […] At 8 weeks postweaning all the feces produced by a rat in 24 h were collected. […] Mean PUFA excretion (percentage of intake) was determined and applied to all animals to determine PUFA excretion. […] Nu-Check Prep, Elysian, MN) was added to the TLE. […] Samples were injected in […] mode. The injector and detector ports were set at 250°C. […] The carrier gas was helium, set to a constant flow rate of 0.7 ml/min. Peaks were identified by retention times of authentic FAME standards (Nu-Chek Prep). […] The concentrations were expressed on a per gram basis then multiplied by total weight of the tissue to determine the total amount of each fatty acid in the tissue.

Dietary PUFA excreted in the feces: 0.5 ± 0.05%
SMILES: CCCCC/C=C\C/C=C\CCCCCCCC(=O)O [LNA, linoleic acid]
